Data: patent publication US11464250B2, “Natural compound sweetener and preparation method therefor” (HUNAN HUACHENG BIOTECH INC., priority 2017, dated 2022)

Legend:
[1] = times that of saccharose, cited from earlier work
[2] = electronic tongue tasting, intelligent gustation analysis system TS-5000Z; conditions: 1% (mass concentration) saccharose as standard; FIG. 1-FIG. 3
Description: Method II: an intelligent gustation analysis system TS-5000Z, namely an electronic tongue is adopted to perform tasting, an artificial fat membrane sensor technology, of which an operating principle is similar to that of human tongue gustation cells, is employed, basic gustatory sensory indexes such as bitter taste, astringent taste, sour taste, saline taste, fresh taste, sweet taste and raw material original taste of samples such as foods or drugs can be objectively and digitally evaluated, and meanwhile, a bitter aftertaste, an astringent aftertaste and a fresh aftertaste (abundance) can be further analyzed. Drawing is performed according to test data, and electronic tongue tasting test data graphs of the natural compound sweeteners in the embodiments 1-3 are separately shown in FIG. 1-FIG. 3.

For `C[C@H](CC[C@@H](O[C@@H]1O[C@H](CO[C@@H]2O[C@H](CO)[C@@H](O)[C@H](O)[C@H]2O)[C@@H](O)[C@H](O)[C@H]1O[C@@H]1O[C@H](CO)[C@@H](O)[C@H](O)[C@H]1O)C(C)(C)O)[C@H]1CC[C@@]2(C)[C@@H]3CC=C4[C@@H](CC[C@H](O[C@@H]5O[C@H](CO[C@@H]6O[C@H](CO)[C@@H](O)[C@H](O)[C@H]6O)[C@@H](O)[C@H](O)[C@H]5O)C4(C)C)[C@]3(C)[C@H](O)C[C@]12C` [Mogroside V], the “maximum sweetness relative to saccharose” value [1] is listed as 420 times.
In the case of rebaudioside C [Reb C], the “sweetness relative to saccharose” value ([1]; from CN104144605A discussion) is given as 300 times.
In the case of `C=C1C[C@@]23CC[C@H]4[C@@](C)(CCC[C@@]4(C)C(=O)O[C@@H]4O[C@H](CO)[C@@H](O)[C@H](O)[C@H]4O)[C@@H]2CC[C@]1(O[C@@H]1O[C@H](CO)[C@@H](O)[C@H](O[C@@H]2O[C@H](CO)[C@@H](O)[C@H](O)[C@H]2O)[C@H]1O[C@@H]1O[C@H](CO)[C@@H](O)[C@H](O)[C@H]1O)C3` [rebaudioside A], the “electronic tongue taste profile” value [2] is reported as “partial to a herbal medicine taste, namely a raw-material original taste is very strong”.
